Experimental data as given in US12667572B2, “Tricyclic compounds useful in the treatment of cancer, autoimmune and inflammatory disorders” (SCHRÖDINGER, INC., priority 2021, dated 2026).

Experiments:
[1] = system: IL10 secretion in OCI-LY10 cells; assay: Human IL10 secretion assay, Assay 1 (HTRF); type: cell-based; conditions: 24 h incubation, read-out: IL-10 Secretion IC50 [nM] Assay 1
Experimental: (§1) IL10 is one of the cytokines that are regulated via activation of NF-kB signaling. For example, in ABC-DLBCL cell lines, the activated NF-kB signaling leads to increased IL10 secretion. Inhibition of NF-kB signaling has been shown leading to decreased IL10 secretion.
Assay 1: OCI-LY10 cells were seeded in IMEM supplemented with 20% fetal bovine serum at 3×10^5 cells per well in 96-well round bottom plates (Corning 3799, Corning), treated with 100 nL of 3-fold serial compound dilutions, starting at 10 mM. The final vehicle concentration was 0.1% DMSO in all wells. After 24 h incubation, the cells were transferred to 96-PCR plates (Axygen: PCR-96-FLT-C) and centrifuged, then 16 μL of cell culture media was transferred to HTRF plates and IL10 levels were measured using human IL-10 Assay Kits (Cisbio) using HTRF format. The signals were transformed to percentage of remaining activity by using the high control (HC, median of signal from wells containing cells treated with DMSO) and low control (LC, median of signal from wells with no cells). IC50 values (nM) were determined using 4-parametric curve-fitting and Hill coefficient obtained using Graph Pad Prism (Graph Pad software, Inc, USA) with non-linear regression analysis.

[2] = biological target: T1, full-length MALT1 protein His-MALT1(1-824) (Homo sapiens, UniProt Q9UDY8); assay: MALT1 protease assay, Assay 1 (2 nM MALT1, Ac-LRSR-AMC substrate); type: biochemical; conditions: 2 nM MALT1, 50 μM Ac-LRSR-AMC, 2 h pre-incubation, 8 hr incubation at RT
T1 construct: full-length MALT1 protein His-MALT1(1-824); His (N); made in house; host or cells: baculovirus-infected insect cells
T1 sequence (Q9UDY8 1-824): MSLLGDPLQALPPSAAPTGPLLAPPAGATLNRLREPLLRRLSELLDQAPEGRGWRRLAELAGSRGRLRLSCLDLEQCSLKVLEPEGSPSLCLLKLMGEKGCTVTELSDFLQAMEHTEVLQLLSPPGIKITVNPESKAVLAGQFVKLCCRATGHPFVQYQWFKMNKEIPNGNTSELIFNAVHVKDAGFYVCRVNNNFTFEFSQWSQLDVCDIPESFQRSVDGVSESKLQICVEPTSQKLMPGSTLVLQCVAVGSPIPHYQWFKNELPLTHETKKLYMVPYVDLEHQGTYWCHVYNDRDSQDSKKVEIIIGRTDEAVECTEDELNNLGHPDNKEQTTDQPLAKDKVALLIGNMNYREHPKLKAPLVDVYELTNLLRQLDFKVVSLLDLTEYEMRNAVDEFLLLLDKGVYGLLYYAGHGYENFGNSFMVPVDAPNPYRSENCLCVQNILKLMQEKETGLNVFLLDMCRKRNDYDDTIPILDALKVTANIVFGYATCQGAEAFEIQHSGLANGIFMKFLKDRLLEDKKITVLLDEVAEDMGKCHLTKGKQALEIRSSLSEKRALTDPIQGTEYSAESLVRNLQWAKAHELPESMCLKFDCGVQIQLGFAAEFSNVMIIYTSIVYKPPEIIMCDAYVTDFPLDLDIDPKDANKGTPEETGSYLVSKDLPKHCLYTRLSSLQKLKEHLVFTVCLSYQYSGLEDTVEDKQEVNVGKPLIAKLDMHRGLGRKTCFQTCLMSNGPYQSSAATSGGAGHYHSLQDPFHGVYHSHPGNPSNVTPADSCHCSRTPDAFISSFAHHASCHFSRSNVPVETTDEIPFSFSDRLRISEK
Method in brief: (§2)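 Compounds (0.1% DMSO final) sat 2 h at RT with insect-cell-expressed His-MALT1(1-824), in 50 mM Tris pH 7.5, 600 mM sodium citrate, 1 mM DTT, 1 mM EDTA, 0.05% BSA. Cleavage of 50 μM Ac-LRSR-AMC (Km ~100 μM) ran 8 h at RT, read as AMC fluorescence. IC50 and Hill coefficient fitted to % remaining activity.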

[3] = biological target: T1, full-length MALT1 protein His-MALT1(1-824); assay: MALT1 protease assay, Assay 2 (1 nM MALT1, Ac-LRSR-AMC substrate); type: biochemical; conditions: 1 nM MALT1, 50 μM Ac-LRSR-AMC, 2 h pre-incubation, 8 hr incubation at RT
Method in brief: as §2

[4] = system: IL10 secretion in OCI-LY10 cells; assay: Human IL10 secretion assay, Assay 2 (MSD); type: cell-based; conditions: 24 h incubation, Meso Scale Discovery, read-out: IL-10 Secretion IC50 [nM] Assay 2
Experimental: as §1
Assay 2: OCI-LY10 cells were seeded in IMEM supplemented with 20% fetal bovine serum at 4.8×10^5 cells per 160 μL per well in 96-well V-bottom cell culture plates (corning, 3894), treated with 120 nL of 3-fold serial compound dilutions, starting at 4 mM. The final vehicle concentration was 0.075% DMSO in all wells. After a 24 h incubation, human IL-10 precoated plates (Meso Scale Discovery) were washed 3 times with PBST, and 50 μL culture medium was aspirated into the MSD plate and incubated at 4° C. overnight. The supernatant was then discarded, and the wells were washed 3 times with PB ST. SULFO-TAG Anti-human IL-10 Antibody (50×) was diluted 50-fold according to the Meso Scale Protocol, then 25 μL of SULFO-TAG Anti-human IL-10 Antibody (1×) was added. After 2 h of incubation at RT, the supernatant was discarded, and the well was washed 3 times with PBST. 2×read buffer was added and the signal was read on an MSD Sector S600. The effect of a particular compound on IL10 secretion is shown relative to the effect of DMSO; set as 100%. IC50 values (nM) were determined using 4-parametric curve-fitting.

| SMILES | IC50 [1] | IC50 [2] | IC50 [3] | IC50 ([4]; Homo sapiens) | IC50 [4] |
| --- | --- | --- | --- | --- | --- |
| Cn1ccc(-c2ncc(NC(=O)C3CC(C)(C)c4c3cnc3cc(Cl)nn43)cc2Cl)n1 (single isomer, unassigned) [Example 11, 2-chloro-N-(5-chloro-6-(1-methyl-1H-pyrazol-3-yl)pyridin-3-yl)-8,8-dimethyl-7,8-dihydro-6H-cyclopenta[e]pyrazolo[1,5-a]pyrimidine-6-carboxamide] | 100 to 1000 nM | 10 to 100 nM | – | – | – |
| C[C@]1(C(F)(F)F)C[C@@H](C(=O)Nc2cnc(-n3nccn3)c(Cl)c2)c2cnc3cc(Cl)nn3c21 (single isomer, unassigned) [Example 37, 2-chloro-N-(5-chloro-6-(2H-1,2,3-triazol-2-yl)pyridin-3-yl)-8-methyl-8-(trifluoromethyl)-7,8-dihydro-6H-cyclopenta[e]pyrazolo[1,5-a]pyrimidine-6-carboxamide] | ≥ 1000 nM | 10 to 100 nM | – | – | – |
| Cc1cc2ncc3c(n2n1)C(C)(C)C[C@@H]3C(=O)Nc1cnc(-n2nccn2)c(Cl)c1 (single isomer, unassigned) [Example 6, N-(5-chloro-6-(2H-1,2,3-triazol-2-yl)pyridin-3-yl)-2,8,8-trimethyl-7,8-dihydro-6H-cyclopenta[e]pyrazolo[1,5-a]pyrimidine-6-carboxamide] | 100 to 1000 nM | < 10 nM | – | – | – |
| CC1(C)CC(C(=O)Nc2cnc(-n3nccn3)c(Cl)c2)c2cnc3cc(F)nn3c21 (single isomer, unassigned) [Example 33, N-(5-chloro-6-(2H-1,2,3-triazol-2-yl)pyridin-3-yl)-2-fluoro-8,8-dimethyl-7,8-dihydro-6H-cyclopenta[e]pyrazolo[1,5-a]pyrimidine-6-carboxamide] | 10 to 100 nM | < 10 nM | – | – | – |
| CC1(C)CCC(C(=O)Nc2cnc(-n3nccn3)c(Cl)c2)c2cnc3cc(Cl)nn3c21 (single isomer, unassigned) [Example 9, 2-chloro-N-(5-chloro-6-(2H-1,2,3-triazol-2-yl)pyridin-3-yl)-9,9-dimethyl-6,7,8,9-tetrahydropyrazolo[1,5-a]quinazoline-6-carboxamide] | 100 to 1000 nM | 10 to 100 nM | – | – | – |
| CC1(C)CC(C(=O)Nc2cnc(-n3cccn3)c(Cl)c2)c2cnc3cc(Cl)nn3c21 (single isomer, unassigned) [Example 13, 2-chloro-N-(5-chloro-6-(1H-pyrazol-1-yl)pyridin-3-yl)-8,8-dimethyl-7,8-dihydro-6H-cyclopenta[e]pyrazolo[1,5-a]pyrimidine-6-carboxamide] | 100 to 1000 nM | 10 to 100 nM | – | – | – |
| CC(C)(O)c1cnn(-c2ncc(NC(=O)C3CC(C)(C)c4c3cnc3cc(Cl)nn43)cc2Cl)n1 (single isomer, unassigned) [Example 23, 2-chloro-N-(5-chloro-6-(4-(2-hydroxypropan-2-yl)-2H-1,2,3-triazol-2-yl)pyridin-3-yl)-8,8-dimethyl-7,8-dihydro-6H-cyclopenta[e]pyrazolo[1,5-a]pyrimidine-6-carboxamide] | 100 to 1000 nM | < 10 nM | – | – | – |
| CC1(C)CC(C(=O)Nc2cnc(OC(F)F)c(C#N)c2)c2cnc3cc(Cl)nn3c21 (single isomer, unassigned) [Example 79, 2-chloro-N-(5-cyano-6-(difluoromethoxy)pyridin-3-yl)-8,8-dimethyl-7,8-dihydro-6H-cyclopenta[e]pyrazolo[1,5-a]pyrimidine-6-carboxamide] | – | – | < 10 nM | 10 to 100 nM | – |
| O=C(Nc1cnc(-n2nccn2)c(C(F)(F)F)c1)C1CC2(CC2)c2c1cnc1cc(Cl)nn21 (single isomer, unassigned) [Example 149, N-(6-(2H-1,2,3-triazol-2-yl)-5-(trifluoromethyl)pyridin-3-yl)-2-chloro-6,7-dihydrospiro[cyclopenta[e]pyrazolo[1,5-a]pyrimidine-8,1′-cyclopropane]-6-carboxamide] | – | – | 10 to 100 nM | 100 to 1000 nM | – |
| Cn1nnnc1-c1ncc(NC(=O)C2CC(C)(C)c3c2cnc2cc(Cl)nn32)cc1Cl (single isomer, unassigned) [Example 145, 2-chloro-N-(5-chloro-6-(1-methyl-1H-tetrazol-5-yl)pyridin-3-yl)-8,8-dimethyl-7,8-dihydro-6H-cyclopenta[e]pyrazolo[1,5-a]pyrimidine-6-carboxamide] | – | – | < 10 nM | 100 to 1000 nM | – |
| CC1(C)CC(C(=O)Nc2cnc(-n3ncc(C4COC4)n3)c(Cl)c2)c2cnc3cc(Cl)nn3c21 (single isomer, unassigned) [Example 111, 2-chloro-N-(5-chloro-6-(4-(oxetan-3-yl)-2H-1,2,3-triazol-2-yl)pyridin-3-yl)-8,8-dimethyl-7,8-dihydro-6H-cyclopenta[e]pyrazolo[1,5-a]pyrimidine-6-carboxamide] | – | – | < 10 nM | 10 to 100 nM | – |
| CC1(C)CC(C(=O)Nc2cnc(-n3nccn3)c(C(F)(F)F)c2)c2cnn3cc(Cl)nc3c21 (single isomer, unassigned) [Example 193, N-(6-(2H-1,2,3-triazol-2-yl)-5-(trifluoromethyl)pyridin-3-yl)-2-chloro-9,9-dimethyl-8,9-dihydro-7H-cyclopenta[d]imidazo[1,2-b]pyridazine-7-carboxamide] | – | – | < 10 nM | 10 to 100 nM | – |
| CC1(C)CC(C(=O)Nc2cnc(OC3CC3)c(Cl)c2)c2cnc3cc(Cl)nn3c21 (single isomer, unassigned) [Example 75, 2-chloro-N-(5-chloro-6-cyclopropoxypyridin-3-yl)-8,8-dimethyl-7,8-dihydro-6H-cyclopenta[e]pyrazolo[1,5-a]pyrimidine-6-carboxamide] | – | – | 10 to 100 nM | 100 to 1000 nM | – |
| C[C@@]1(C(F)(F)F)C[C@H](C(=O)Nc2cnc(-n3nccn3)c(C(F)(F)F)c2)c2cnc3cc(Cl)nn3c21 (single isomer, unassigned) [Example 56, N-(6-(2H-1,2,3-triazol-2-yl)-5˜(trifluoromethyl)pyridin-3-yl)-2-chloro-8-methyl-8-(trifluoromethyl)-7,8-dihydro-6H-cyclopenta[e]pyrazolo[1,5-a]pyrimidine-6-carboxamide] | – | – | < 10 nM | – | 100 to 1000 nM |
| Cc1cn2ncc3c(c2n1)C(C)(C)CC3C(=O)Nc1cnc(-n2nccn2)c(Cl)c1 (single isomer, unassigned) [Example 189, N-(5-chloro-6-(2H-1,2,3-triazol-2-yl)pyridin-3-yl)-2,9,9-trimethyl-8,9-dihydro-7H-cyclopenta[d]imidazo[1,2-b]pyridazine-7-carboxamide] | – | – | < 10 nM | 100 to 1000 nM | – |
